Laboratory results reported in PMC7554340, “A Novel Dual-Targeted α-Helical Peptide With Potent Antifungal Activity Against Fluconazole-Resistant Candida albicans Clinical Isolates” (Frontiers in Microbiology, 2020).
Converted amounts (≈) assume the structure as drawn.

Tests used:
[1] = tested on: C. albicans cgmcc 2.2086; experiment: Antifungal activity assay (broth microdilution, MIC/MFC); assay type: cell-based, Candida albicans; details: Candida albicans, CGMCC2, 48 h; for MFC: 50 μl of MIC wells plated on YPD agar, 28°C, lowest concentration that completely killed fungal cells, consensus of at least three independent experiments; for MIC: broth microdilution, RPMI-MOPS pH 7.0, 28°C, lowest concentration inhibiting 99% of growth (A492)
[2] = tested on: C. tropicalis cgmcc 2.1975; experiment: as above; assay type: cell-based, Candida tropicalis; details: Candida tropicalis, CGMCC2, 48 h; for MFC: 50 μl of MIC wells plated on YPD agar, 28°C, lowest concentration that completely killed fungal cells, consensus of at least three independent experiments; for MIC: broth microdilution, RPMI-MOPS pH 7.0, 28°C, lowest concentration inhibiting 99% of growth (A492)
[3] = tested on: C. parapsilosis cgmcc 2.3989; experiment: as above; assay type: cell-based, Candida parapsilosis; details: Lodderomyces parapsilosis, CGMCC2, 48 h; for MFC: 50 μl of MIC wells plated on YPD agar, 28°C, lowest concentration that completely killed fungal cells, consensus of at least three independent experiments; for MIC: broth microdilution, RPMI-MOPS pH 7.0, 28°C, lowest concentration inhibiting 99% of growth (A492)
[4] = tested on: C. albicans 56452; experiment: microbe, parasite or virus in culture; details: Candida albicans, 56452, 48 h; for MIC: pH 7
[5] = tested on: C. albicans 56214; experiment: microbe, parasite or virus in culture; details: Candida albicans, 56214, 48 h; for MIC: pH 7
[6] = tested on: C. albicans 14936; experiment: microbe, parasite or virus in culture; details: Candida albicans, 14936, 48 h; for MIC: pH 7
[7] = tested on: C. albicans 17546; experiment: microbe, parasite or virus in culture; details: Candida albicans, 17546, 48 h; for MIC: pH 7
[8] = tested on: C. albicans 58288; experiment: microbe, parasite or virus in culture; details: Candida albicans, 58288, 48 h; for MIC: pH 7
[9] = tested on: C. albicans sp3902; experiment: microbe, parasite or virus in culture; details: Candida albicans, SP3902, 48 h; for MIC: pH 7
[10] = tested on: C. albicans sp3903; experiment: microbe, parasite or virus in culture; details: Candida albicans, SP3903, 48 h; for MIC: pH 7
[11] = tested on: C. albicans sp3931; experiment: microbe, parasite or virus in culture; details: Candida albicans, SP3931, 48 h; for MIC: pH 7
[12] = tested on: C. albicans sp3876; experiment: microbe, parasite or virus in culture; details: Candida albicans, SP3876, 48 h; for MIC: pH 7
[13] = tested on: C. albicans cgmcc 2.2086; assay type: cell-based, Candida albicans

SMILES | MFC [1] | MIC [1] | MFC [2] | MIC [2] | MFC [3] | MIC [3] | MFC [4] | MIC [4] | MFC [5] | MIC [5] | MFC [6] | MIC [6] | MFC [7] | MIC [7] | MFC [8] | MIC [8] | MFC [9] | MIC [9] | MFC [10] | MIC [10] | other results
C[C@@H]1[C@H](O)[C@@H](C)/C=C/C=C/C=C/C=C/C=C/C=C/C=C/[C@H](O[C@@H]2O[C@H](C)[C@@H](O)[C@H](N)[C@@H]2O)C[C@@H]2O[C@](O)(C[C@@H](O)C[C@@H](O)[C@H](O)CC[C@@H](O)C[C@@H](O)CC(=O)O[C@H]1C)C[C@H](O)[C@H]2C(=O)O [AmB, amphotericin B] | 1 µM (≈ 0.924 µg/mL) | 1 µM (≈ 0.924 µg/mL) | 2 µM (≈ 1.85 µg/mL) | 1 µM (≈ 0.924 µg/mL) | 2 µM (≈ 1.85 µg/mL) | 2 µM (≈ 1.85 µg/mL) | 2 µM (≈ 1.85 µg/mL) | 1 µM (≈ 0.924 µg/mL) | 2 µM (≈ 1.85 µg/mL) | 1 µM (≈ 0.924 µg/mL) | 0.5 µM (≈ 0.462 µg/mL) | 0.25 µM (≈ 0.231 µg/mL) | 1 µM (≈ 0.924 µg/mL) | 0.25 µM (≈ 0.231 µg/mL) | 1 µM (≈ 0.924 µg/mL) | 0.5 µM (≈ 0.462 µg/mL) | 1 µM (≈ 0.924 µg/mL) | 0.25 µM (≈ 0.231 µg/mL) | 1 µM (≈ 0.924 µg/mL) | 0.13 µM (≈ 0.12 µg/mL) | MFC [11]: 1 µM (≈ 0.924 µg/mL); MIC [11]: 0.25 µM (≈ 0.231 µg/mL); MFC [12]: 0.5 µM (≈ 0.462 µg/mL); MIC [12]: 0.25 µM (≈ 0.231 µg/mL)
OC(Cn1cncn1)(Cn1cncn1)c1ccc(F)cc1F [FLU, fluconazole] | 4 µM (≈ 1.23 µg/mL) | 2 µM (≈ 0.613 µg/mL) | 32 µM (≈ 9.8 µg/mL) | 4 µM (≈ 1.23 µg/mL) | 8 µM (≈ 2.45 µg/mL) | 4 µM (≈ 1.23 µg/mL) | > 256 µM | > 256 µM | > 256 µM | > 256 µM | > 256 µM | 32 µM (≈ 9.8 µg/mL) | > 256 µM | > 256 µM | > 256 µM | 8 µM (≈ 2.45 µg/mL) | > 256 µM | 16 µM (≈ 4.9 µg/mL) | 64 µM (≈ 19.6 µg/mL) | 16 µM (≈ 4.9 µg/mL) | change of MIC after serial passage [13]: eightfold; MFC [11]: 64 µM (≈ 19.6 µg/mL); MIC [11]: 1 µM (≈ 0.306 µg/mL); MFC [12]: > 256 µM; MIC [12]: > 256 µM
